According to patent US11478451B1, “Macrocyclic chlorine substituted indole derivatives” (Bayer Aktiengesellschaft, priority 2017, dated 2022):
Counter-ions that a name gives are not always drawn. Like-named read-outs stand apart in the source and are kept apart here. Values belong to the compound of their own block, whether it stands above or below them.

How the values were obtained:
AMO-1 cells = assay: Antiproliferation assay (CellTiter-Glo, 72 h), AMO-1; assay type: cell-based; settings: IC50, median, AMO-1, 72 h, read-out: Antiproli AMO-1 [M] median
Summary of the method: (§1)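 Luminescent ATP-based viability (CellTiter-Glo) measured after 72 h of compound treatment at 37 °C. A day 0 plate recorded at time zero served as the starting reference for proliferation.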

SUDHL10 cells [1] = assay: Induction of caspase-3/7 activity (Caspase-Glo 3/7), SUDHL10; assay type: cell-based; settings: EC50, median, SUDHL10, 3 h treatment
Summary of the method: (§2)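 Steps: seed the diffuse large B-cell lymphoma cells, leaving rim wells unused; add compounds; incubate 3 h at 37 °C; add Caspase-Glo 3/7 reagent; read; subtract medium-only background.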

SUDHL5 cells [2] = assay: Induction of cytotoxicity (CellTiter-Glo, 5 h), SUDHL5; settings: SUDHL5, 5 h
HMC-1-8 cells = assay: Antiproliferation assay (CellTiter-Glo, 72 h), HMC-1-8; assay type: cell-based; settings: IC50, median, HMC-1-8, 72 h, read-out: Antiproli HMC-1-8 [M] median
Procedure: Assessment of the Anti-Proliferative Effect of Compounds in Different Cell Lines
The impact of compounds on the proliferation of different cell lines was assessed using the CellTiter-Glo® Luminescent Cell Viability reagent from Promega (G7573).
In parallel, cells were plated in a reference (day 0) plate for time zero determination.
Rim wells were excluded. The cells were incubated for 72 h hours in a humidified incubator at 37° C. The day 0 plate was measured by adding 30 μL/well of CTG solution (CellTiter-Glo® Luminescent Cell Viability reagent, Promega G7573) to time zero wells in the reference plate followed by a 10 minutes incubation and luminescence reading at 0.1 ms. using the PHERAstar FS microplate reader (BMG Labtech).
After 72 h incubation, the treated plates were measured in the same way as the day 0 plate mentioned above.

SUDHL10 cells [3] = assay: Induction of cytotoxicity (CellTiter-Glo, 5 h), SUDHL10; settings: SUDHL10, 5 h
SUDHL5 cells [4] = assay: Induction of caspase-3/7 activity (Caspase-Glo 3/7), SUDHL5; assay type: cell-based; settings: EC50, median, SUDHL5, 3 h treatment
Summary of the method: as §2

SUDHL5 cells [5] = assay: Antiproliferation assay (CellTiter-Glo, 72 h), SUDHL5; assay type: cell-based; settings: IC50, median, SUDHL5, 72 h, read-out: Antiproli SUDHL5 [M] (median)
Summary of the method: as §1

[6] = Homo sapiens, SU-DHL-5, 5 h, read-out: Cytotox SUDHL5 [M] (median), IC50, median
[7] = Homo sapiens, SU-DHL10, 5 h, read-out: Cytotox SUDHL10 [M] (median), IC50, median
[8] = read-out: Cytotox SUDHL5 [M] (median), IC50, median

Structure (SMILES): CCc1c2c(nn1C)CN(C)CCCn1c(C(=O)O)c(CCCOc3cccc4cc(F)ccc34)c3ccc(Cl)c-2c31 (racemic) [Example 112, (rac)-12-chloro-11-ethyl-1-{3-[(6-fluoronaphthalen-1-yl)oxy]propyl}-7,10-dimethyl-4,5,6,7,8,10-hexahydropyrazolo[3′,4′:7,8][1,5]diazecino[9,10,1-hi]indole-2-carboxylic acid]
EC50 (SUDHL5 cells [4]): 600 nM
IC50 (AMO-1 cells): 9.1e-07 M
EC50 (SUDHL10 cells [1]): 860 nM
IC50 (SUDHL5 cells [2]; [8]): 6.1e-07 M
IC50 (HMC-1-8 cells; 72 h): 7.1e-06 M
IC50 (SUDHL5 cells [5]; Homo sapiens, SU-DHL-5, 72 h): 1.5e-06 M

Structure (SMILES): CCc1c2c(nn1C)CN(CCOC)CCCCn1c(C(=O)O)c(CCCOc3cccc4cc(F)ccc34)c3ccc(Cl)c-2c31 (racemic) [Example 131, (rac)-4-chloro-3-ethyl-7-{3-[(6-fluoronaphthalen-1-yl)oxy]propyl}-14-(2-methoxyethyl)-2-methyl-10,11,12,13,14,15-hexahydro-2H-pyrazolo[3′,4′:8,9][1,6]diazacycloundecino[10,11,1-hi]indole-8-carboxylic acid]
EC50 (SUDHL10 cells [1]; Homo sapiens, SU-DHL10, 3 h): 130 nM
IC50 (HMC-1-8 cells; 72 h): 1.3e-06 M
IC50 (SUDHL10 cells [3]; [7]): 1.5e-07 M

Structure (SMILES): Cc1c2c(nn1C)COCCn1c(C(=O)O)c(CCCOc3cccc4ccccc34)c3ccc(Cl)c-2c31 (single isomer, unassigned) [Example 88, 11-chloro-9,10-dimethyl-1-{3-[(naphthalen-1-yl)oxy]propyl}-4,5,7,9-tetrahydropyrazolo[4′,3′:7,8][1,4]oxazonino[6,5,4-hi]indole-2-carboxylic acid]
EC50 (SUDHL5 cells [4]; Homo sapiens, SU-DHL-5, 3 h): 7400 nM
IC50 (AMO-1 cells; Homo sapiens, AMO1, 72 h): 6.7e-06 M
EC50 (SUDHL10 cells [1]; Homo sapiens, SU-DHL10, 3 h): 4300 nM
IC50 (HMC-1-8 cells; 72 h): 4.5e-06 M
IC50 (SUDHL10 cells [3]; [7]): 4e-06 M

Structure (SMILES): CCc1c2c(nn1C)COCC1CC1Cn1c(C(=O)O)c(CCCOc3cccc4cc(F)ccc34)c3ccc(Cl)c-2c31 (single isomer, unassigned; (+)) [Example 104, (+)-3-chloro-4-ethyl-14-{3-[(6-fluoronaphthalen-1-yl)oxy]propyl}-5-methyl-5,7,9a,10,10a,11-hexahydro-9H-cyclopropa[3,4]pyrazolo[4′,3′:9,10][1,6]oxazacycloundecino[8,7,6-hi]indole-13-carboxylic acid N-ethylethanamine salt]
EC50 (SUDHL5 cells [4]): 810 nM
IC50 (AMO-1 cells): 2.4e-06 M
EC50 (SUDHL10 cells [1]): 1500 nM
IC50 (SUDHL5 cells [2]; [8]): 9.7e-07 M
IC50 (HMC-1-8 cells): 8.5e-06 M
IC50 (SUDHL5 cells [5]; Homo sapiens, SU-DHL-5, 72 h): 1e-06 M

Structure (SMILES): CCc1c2c(nn1C)COCCCCn1c(C(=O)O)c(CCCOc3cccc4ccccc34)c3ccc(Cl)c-2c31 (single isomer, unassigned; enantiomer 1) [Example 20, 4-chloro-3-ethyl-2-methyl-7-[3-(naphthalen-1-yloxy)propyl]-2,10,11,12,13,15-hexahydropyrazolo[4′,3′:9,10][1,6]oxazacycloundecino[8,7,6-hi]indole-8-carboxylic acid (Enantiomer 1)]
IC50 (AMO-1 cells; Homo sapiens, AMO1, 72 h): 8.7e-07 M
EC50 (SUDHL10 cells [1]; Homo sapiens, SU-DHL10, 3 h): 390 nM
IC50 (HMC-1-8 cells; 72 h): 2.5e-06 M
IC50 (SUDHL10 cells [3]; [7]): 6.9e-07 M

Structure (SMILES): Cc1c2c(nn1C)COCCC(F)(F)Cn1c(C(=O)O)c(CCCOc3cccc4ccccc34)c3ccc(Cl)c-2c31 [Example 94, 4-chloro-11,11-difluoro-2,3-dimethyl-7-{3-[(naphthalen-1-yl)oxy]propyl}-2,10,11,12,13,15-hexahydropyrazolo[4′,3′:9,10][1,6]oxazacycloundecino[8,7,6-hi]indole-8-carboxylic acid N-ethylethanamine salt]
EC50 (SUDHL5 cells [4]; listed as 094): 1600 nM
EC50 (SUDHL10 cells [1]; listed as 094): 3100 nM
IC50 (SUDHL5 cells [2]; read-out: Cytotox SUDHL5 [M] (median), IC50, median, listed as 094): 2.9e-06 M
IC50 (HMC-1-8 cells; 72 h): 6.3e-06 M
IC50 (SUDHL10 cells [3]; read-out: Cytotox SUDHL10 [M] (median), IC50, median, listed as 094): 4.5e-06 M

Structure (SMILES): CCc1c2c(nn1C)CCCN(CC(F)F)CCn1c(C(=O)O)c(CCCOc3cccc4cc(F)ccc34)c3ccc(Cl)c-2c31 [Example 120, (−)-4-chloro-12-(2,2-difluoroethyl)-3-ethyl-7-{3-[(6-fluoronaphthalen-1-yl)oxy]propyl}-2-methyl-10,11,12,13,14,15-hexahydro-2H-pyrazolo[3′,4′:8,9][1,4]diazacycloundecino[10,11,1-hi]indole-8-carboxylic acid N-ethylethanamine salt]
EC50 (SUDHL5 cells [4]): 10000 nM
IC50 (HMC-1-8 cells): 7.1e-06 M
IC50 (SUDHL5 cells [5]): 7e-06 M

The next lines start with results.

EC50 (SUDHL10 cells [1]; Homo sapiens, SU-DHL10, 3 h): 220 nM
Structure (SMILES): Cc1c2c(nn1C)COCCC(F)(F)Cn1c(C(=O)O)c(CCCOc3cccc4cc(F)ccc34)c3ccc(Cl)c-2c31 (racemic) [Example 93, (rac)-4-Chloro-11,11-difluoro-7-{3-[(6-fluoronaphthalen-1-yl)oxy]propyl}-2,3-dimethyl-2,10,11,12,13,15-hexahydropyrazolo[4′,3′:9,10][1,6]oxazacycloundecino[8,7,6-hi]indole-8-carboxylic acid]
IC50 (AMO-1 cells; Homo sapiens, AMO1, 72 h): 1.2e-06 M
IC50 (SUDHL5 cells [2]; [6]): 3.5e-07 M
IC50 (HMC-1-8 cells; 72 h): 4.9e-06 M
IC50 (SUDHL10 cells [3]; [7]): 4.3e-07 M

EC50 (SUDHL5 cells [4]; listed as 081): 7400 nM
EC50 (SUDHL10 cells [1]; listed as 081): 6200 nM
Structure (SMILES): Cc1c2c(nn1C)COCC1CCC1Cn1c(C(=O)O)c(CCCOc3cccc4ccccc34)c3ccc(Cl)c-2c31 (single isomer, unassigned) [Example 81, 3-chloro-4,5-dimethyl-15-{3-[(naphthalen-1-yl)oxy]propyl}-5,7,9,9a,10,11,11a,12-octahydrocyclobuta[3,4]pyrazolo[4′,3′:9,10][1,6]oxazacycloundecino[8,7,6-hi]indole-14-carboxylic acid]
IC50 (SUDHL5 cells [2]; read-out: Cytotox SUDHL5 [M] (median), IC50, median, listed as 081): 5.8e-06 M
IC50 (HMC-1-8 cells; listed as 081): 5.5e-06 M
IC50 (SUDHL10 cells [3]; read-out: Cytotox SUDHL10 [M] (median), IC50, median, listed as 081): 8.4e-06 M

EC50 (SUDHL5 cells [4]; Homo sapiens, SU-DHL-5, 3 h): 710 nM
EC50 (SUDHL10 cells [1]; Homo sapiens, SU-DHL10, 3 h): 1600 nM
Structure (SMILES): Cc1nn(C)c2c1-c1c(Cl)ccc3c(CCCOc4cccc5ccccc45)c(C(=O)O)n(c13)CCCCOC2 (single isomer, unassigned; enantiomer 1) [Example 3, 4-chloro-1,3-dimethyl-7-[3-(naphthalen-1-yloxy)propyl]-1,10,11,12,13,15-hexahydropyrazolo[4′,3′:9,10][1,6]oxazacycloundecino[8,7,6-hi]indole-8-carboxylic acid (Enantiomer 1)]
IC50 (AMO-1 cells; Homo sapiens, AMO1, 72 h): 2.5e-06 M
IC50 (SUDHL5 cells [2]; [6]): 6.5e-07 M
IC50 (HMC-1-8 cells; 72 h): 8.3e-06 M
IC50 (SUDHL10 cells [3]; [7]): 1.5e-06 M

EC50 (SUDHL5 cells [4]): 7600 nM
IC50 (SUDHL5 cells [5]): 3.9e-06 M
Structure (SMILES): Cc1c2c(nn1C)CN(CC(F)(F)F)CCCCn1c(C(=O)O)c(CCCOc3cccc4cc(F)ccc34)c3ccc(Cl)c-2c31 (single isomer, unassigned; enantiomer 2) [Example 60, 4-chloro-7-{3-[(6-fluoronaphthalen-1-yl)oxy]propyl}-2,3-dimethyl-14-(2,2,2-trifluoroethyl)-10,11,12,13,14,15-hexahydro-2H-pyrazolo[3′,4′:8,9][1,6]diazacycloundecino[10,11,1-hi]indole-8-carboxylic acid—Enantiomer 2]
IC50 (SUDHL5 cells [2]; [8]): 6.9e-06 M
IC50 (HMC-1-8 cells; 72 h): 8.7e-06 M

EC50 (SUDHL5 cells [4]; listed as 079): 580 nM
EC50 (SUDHL10 cells [1]; listed as 079): 1400 nM
Structure (SMILES): Cc1c2c(nn1C)COCC1CCC1Cn1c(C(=O)O)c(CCCOc3cccc4ccccc34)c3ccc(Cl)c-2c31 (single isomer, unassigned; enantiomer 2) [Example 79, 3-chloro-4,5-dimethyl-15-{3-[(naphthalen-1-yl)oxy]propyl}-5,7,9,9a,10,11,11a,12-octahydrocyclobuta[3,4]pyrazolo[4′,3′:9,10][1,6]oxazacycloundecino[8,7,6-hi]indole-14-carboxylic acid (Enantiomer 2)]
IC50 (AMO-1 cells; listed as 079): 1.7e-06 M
IC50 (SUDHL5 cells [2]; read-out: Cytotox SUDHL5 [M] (median), IC50, median, listed as 079): 7.7e-07 M
IC50 (HMC-1-8 cells; 72 h): 8.6e-06 M
IC50 (SUDHL10 cells [3]; read-out: Cytotox SUDHL10 [M] (median), IC50, median, listed as 079): 1.6e-06 M

EC50 (SUDHL5 cells [4]): 330 nM
IC50 (SUDHL5 cells [5]; Homo sapiens, SU-DHL-5, 72 h): 5e-07 M
Structure (SMILES): Cc1c2c(nn1C)COCC1CCC1Cn1c(C(=O)O)c(CCCOc3cccc4ccccc34)c3ccc(Cl)c-2c31 (single isomer, unassigned; stereoisomer 2) [Example 64]
IC50 (AMO-1 cells; Homo sapiens, AMO1, 72 h): 1.6e-06 M
IC50 (SUDHL5 cells [2]; [6]): 5.4e-07 M
IC50 (HMC-1-8 cells; 72 h): 5.6e-06 M
